Experimental data reported in patent US20220401408A1, “COMPOSITIONS AND METHODS FOR RESCUING RETINAL AND CHOROIDAL STRUCTURE AND FUNCTION” (AUCKLAND UNISERVICES LIMITED, priority 2019, published 2022).

Tested on: hyperglycemic rats
Experiment: OCT in hyperglycemic rat diabetic retinopathy model (aneurysms, layer thickness)
Format: in vivo, SD rats (spontaneously hyperglycemic strain)
From the text: Hyperglycemic Rat Diabetic Retinopathy Model—A spontaneously hyperglycemic strain of SD rats, which developed clinical signs of diabetic retinopathy within 4 weeks of birth were identified and isolated within the Vernon Jansen Animal Research Unit, Faculty of Medical and Health Sciences at the University of Auckland. The identification of these rats presenting with hyperglycemia and microaneurysms provided an opportunity to treat a complex, chronic disease model and assess the treatment effect based upon objective, measurable endpoints, despite lacking precise information on the etiology of the disease. Inbreeding was carried out over three generations and eyes were screened for abnormalities between 4-8 weeks of age. Additional information about these rats is presented as supplementary information. Glucose levels were tested in non-fasting rats (Lee J J, Yi H Y, Yang J W, Shin J S, Kwon J H, Kim C W. Characterization of streptozotocin-induced diabetic rats and pharmacodynamics of insulin formulations. Biosci Biotechnol Biochem. 2003; 67:2396-401) using a Freestyle Optium Glucometer (Abbott Laboratories Ltd., UK) and Freestyle Optium glucose strips.
Ten rats per group were the selected (10 normal SD and 10 hyperglycemic) grown to 5 weeks of age and assessed using OCT and ERG. The hyperglycemic rat group was then split into two subgroups of five, with one subgroup fed tonabersat once daily for 14 days from weeks 5 to 7 at a low dose level of 0.28 mg/kg in 0.5 g peanut butter, with the other subgroup fed 0.5 g peanut butter only. All animals were assessed again using ERG and OCT at 8 weeks of age before euthanizing animals and removing the eyes for immunohistochemical analysis. Data groups were randomized prior to the statistical comparison. In summary, normal SD and hyperglycemic rats were analyzed with OCT and ERG at 5 weeks of age; the hyperglycemic rats were then split into two groups and fed the vehicle or tonabersat for 14 days during weeks 6 and 7 of age. At week 8, animals were again assessed with ERG and OCT and tissues collected for immunohistochemical analysis. Four tonabersat-treated rats were, however, left until 3 months of age before final ERG and OCT and tissue collection.
Evans Blue Dye Assessment of Vessel Leak—To investigate whether micro- and macro-aneurysms in the hyperglycemic rat retinas (observed using OCT) reflect sites of vessel leak, rats were perfused at the age of 3 months with Evans Blue dye as previously described. Cai S, Yang Q, Hou M, Han Q, Zhang H, Wang J, et al. Alpha-Melanocyte-Stimulating Hormone Protects Early Diabetic Retina from Blood-Retinal Barrier Breakdown and Vascular Leakage via MC4R. Cell Physiol Biochem. 2018; 45:505-22. Briefly, Evans Blue dye (30 mg/ml; Sigma-Aldrich, USA) was dissolved in normal saline and filtered. The dye was delivered as an injection into the rat-tail vein of normal SD and hyperglycemic rats at 45 mg/kg and allowed to circulate for 2 hours. Eyes were enucleated while rats were under deep anesthesia and an intracardial injection of 3M KCl was then administered rapidly to euthanize the animals. The posterior segment cups were fixed whole in 4% paraformaldehyde for 30 min and the retinas removed and laid flat. Evans Blue was stimulated at 559 nm wavelength and visualized by its red fluorescence emission using Olympus FluoView FV1000 (Olympus Corporation, Tokyo, Japan). […]

[1] = 0.28 mg/kg once daily 14 days, week 8

CC(=O)c1ccc2c(c1)[C@H](NC(=O)c1ccc(F)c(Cl)c1)[C@H](O)C(C)(C)O2 [tonabersat, N-[(3S,4S)-6-acetyl-3-hydroxy-2,2-dimethyl-3,4-dihydrochromen-4-yl]-3-chloro-4-fluorobenzamide]
number and size of microaneurysms after treatment [1]: differences
retinal layer thickness (INL or ONL) or thickness of the choroid, treated vs untreated [1]: no significant difference
hyperreflective spot on OCT after treatment (0.28 mg/kg once daily for 14 days, 8 weeks): barely visible
clinical signs, including the presence of aneurysms (DR model, daily treatment for two weeks): reduced
micro- and macro-aneurysms compared to placebo controls (oral, DR model): regression
